In US12577206B2 (BRISTOL-MYERS SQUIBB COMPANY, priority 2020, dated 2026):

How the values were obtained:
[1] = target: T1, human FPR2 (Homo sapiens, UniProt P25090); experiment: FPR2 cyclic adenosine monophosphate (cAMP) assay; assay type: cell-based; conditions: CHO cells overexpressing human FPR2; forskolin 5 μM; inhibition of cAMP production; HTRF; read-out: hFPR2 cAMP2 EC50
T1 sequence (P25090 1-351): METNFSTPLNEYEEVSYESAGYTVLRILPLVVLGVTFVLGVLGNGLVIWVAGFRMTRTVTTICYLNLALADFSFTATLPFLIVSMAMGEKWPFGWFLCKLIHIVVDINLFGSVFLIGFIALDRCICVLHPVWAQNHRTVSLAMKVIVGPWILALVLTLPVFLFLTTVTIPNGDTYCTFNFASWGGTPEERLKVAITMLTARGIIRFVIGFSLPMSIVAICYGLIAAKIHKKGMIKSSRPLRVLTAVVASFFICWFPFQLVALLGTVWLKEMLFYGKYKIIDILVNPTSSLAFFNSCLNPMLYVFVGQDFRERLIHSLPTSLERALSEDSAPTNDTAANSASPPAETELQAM
Method in brief: (§1)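 CHO/hFPR1 4,000 cells/well, forskolin 10 μM final; CHO/hFPR2 2,000 cells/well, forskolin 5 μM final. IBMX 200 μM, DMSO 1%, DPBS + Ca/Mg + 0.1% BSA, 30 min rt. HTRF cAMP; 4-PL fit.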

[2] = target: T2, human FPR1 (Homo sapiens, UniProt P21462); experiment: FPR1 cyclic adenosine monophosphate (cAMP) assay; assay type: cell-based; conditions: CHO cells overexpressing human FPR1; forskolin 10 μM; inhibition of cAMP production; HTRF; read-out: hFPR1 cAMP2 EC50
T2 sequence (P21462 1-350): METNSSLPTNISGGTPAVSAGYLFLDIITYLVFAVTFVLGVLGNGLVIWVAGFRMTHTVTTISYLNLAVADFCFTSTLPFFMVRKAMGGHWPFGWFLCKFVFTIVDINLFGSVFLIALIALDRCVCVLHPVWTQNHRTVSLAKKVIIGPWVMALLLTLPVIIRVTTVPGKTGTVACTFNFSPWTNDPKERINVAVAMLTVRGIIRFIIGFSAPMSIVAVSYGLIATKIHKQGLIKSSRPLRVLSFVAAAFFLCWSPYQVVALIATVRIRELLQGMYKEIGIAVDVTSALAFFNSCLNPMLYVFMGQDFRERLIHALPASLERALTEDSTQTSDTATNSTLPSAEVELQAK
Method in brief: as §1

COc1cc(F)c(-c2c(NC(=O)c3ccc(OC(F)F)cc3)c(=O)n(-c3cccc(Cl)c3F)n2C)c(F)c1 [Example 187, N-[2-(3-chloro-2-fluorophenyl)-5-(2,6-difluoro-4-methoxyphenyl)-1-methyl-3-oxo-2,3-dihydro-1H-pyrazol-4-yl]-4-(difluoromethoxy)benzamide]
EC50 [1]: 4 nM
EC50 [2]: 2200 nM

COc1cc(F)c(-c2c(NC(=O)c3ccc(OC(F)F)cc3)c(=O)n(-c3cc(F)ccc3C#N)n2C)c(F)c1 [Example 188, N-[2-(2-cyano-5-fluorophenyl)-5-(2,6-difluoro-4-methoxyphenyl)-1-methyl-3-oxo-2,3-dihydro-1H-pyrazol-4-yl]-4-(difluoromethoxy)benzamide]
EC50 [1]: 14 nM
EC50 [2]: > 10000 nM

COc1cc(F)c(-c2c(NC(=O)c3ccc(OC(F)F)cc3)c(=O)n(-c3cccc(C#N)c3F)n2C)c(F)c1 [Example 189, N-[2-(3-cyano-2-fluorophenyl)-5-(2,6-difluoro-4-methoxyphenyl)-1-methyl-3-oxo-2,3-dihydro-1H-pyrazol-4-yl]-4-(difluoromethoxy)benzamide]
EC50 [1]: 5 nM
EC50 [2]: 190 nM

COc1cc(F)c(-c2c(NC(=O)c3ccc(OC(F)F)cc3)c(=O)n(-c3nc(C(C)(C)C)ccc3C#N)n2C)c(F)c1 [Example 190, N-[2-(6-tert-butyl-3-cyanopyridin-2-yl)-5-(2,6-difluoro-4-methoxyphenyl)-1-methyl-3-oxo-2,3-dihydro-1H-pyrazol-4-yl]-4-(difluoromethoxy)benzamide]
EC50 [1]: 3 nM
EC50 [2]: > 10000 nM

COc1cc(F)c(-c2c(NC(=O)c3ccc(OC(F)F)cc3)c(=O)n(-c3nc(C4CCC4)ccc3C#N)n2C)c(F)c1 [Example 191, N-(2-(3-cyano-6-cyclobutylpyridin-2-yl)-5-(2,6-difluoro-4-methoxyphenyl)-1-methyl-3-oxo-2,3-dihydro-1H-pyrazol-4-yl)-4-(difluoromethoxy)benzamide]
EC50 [1]: 2 nM
EC50 [2]: 4800 nM

CCOC1(c2ccc(C#N)c(-n3c(=O)c(NC(=O)c4ccc(OC(F)F)cc4)c(-c4c(F)cc(OC)cc4F)n3C)n2)CC1 [Example 192, N-{2-[3-cyano-6-(1-ethoxycyclopropyl)pyridin-2-yl]-5-(2,6-difluoro-4-methoxyphenyl)-1-methyl-3-oxo-2,3-dihydro-1H-pyrazol-4-yl}-4-(difluoromethoxy)benzamide]
EC50 [1]: 4 nM
EC50 [2]: > 10000 nM

COc1cc(F)c(-c2c(NC(=O)c3ccc(OC(F)F)cc3)c(=O)n(-c3nc(C(C)(C)F)ccc3C#N)n2C)c(F)c1 [Example 194, N-{2-[3-cyano-6-(2-fluoropropan-2-yl)pyridin-2-yl]-5-(2,6-difluoro-4-methoxyphenyl)-1-methyl-3-oxo-2,3-dihydro-1H-pyrazol-4-yl}-4-(difluoromethoxy)benzamide]
EC50 [1]: 5 nM
EC50 [2]: > 10000 nM

COc1cc(F)c(-c2c(NC(=O)c3ccc(OC(F)F)cc3)c(=O)n(-c3nc(CO)ccc3C(F)(F)F)n2C)c(F)c1 [Example 195, N-[5-(2,6-difluoro-4-methoxyphenyl)-2-[6-(hydroxymethyl)-3-(trifluoromethyl)pyridin-2-yl]-1-methyl-3-oxo-2,3-dihydro-1H-pyrazol-4-yl]-4-(difluoromethoxy)benzamide]
EC50 [1]: 14 nM
EC50 [2]: > 10000 nM

COCc1ccc(C(F)(F)F)c(-n2c(=O)c(NC(=O)c3ccc(OC(F)F)cc3)c(-c3c(F)cc(OC)cc3F)n2C)n1 [Example 196, N-[5-(2,6-difluoro-4-methoxyphenyl)-2-[6-(methoxymethyl)-3-(trifluoromethyl)pyridin-2-yl]-1-methyl-3-oxo-2,3-dihydro-1H-pyrazol-4-yl]-4-(difluoromethoxy)benzamide]
EC50 [1]: 9 nM
EC50 [2]: > 10000 nM

COc1cc(F)c(-c2c(NC(=O)c3ccc(OC(F)F)cc3)c(=O)n(-c3ncccc3Cl)n2C)c(F)c1 [Example 197, N-[2-(3-chloropyridin-2-yl)-5-(2,6-difluoro-4-methoxyphenyl)-1-methyl-3-oxo-2,3-dihydro-1H-pyrazol-4-yl]-4-(difluoromethoxy)benzamide]
EC50 [1]: 16 nM
EC50 [2]: > 10000 nM

COc1cc(F)c(-c2c(NC(=O)c3ccc(OC(F)F)cc3)c(=O)n(-c3cc(OC)ccc3Cl)n2C)c(F)c1 [Example 198, N-[2-(2-chloro-5-methoxyphenyl)-5-(2,6-difluoro-4-methoxyphenyl)-1-methyl-3-oxo-2,3-dihydro-1H-pyrazol-4-yl]-4-(difluoromethoxy)benzamide]
EC50 [1]: 13 nM
EC50 [2]: > 10000 nM

COc1cc(F)c(-c2c(NC(=O)c3ccc(OC(F)F)cc3)c(=O)n(-c3nccc(C4CCCCC4)c3C#N)n2C)c(F)c1 [Example 199, N-[2-(3-cyano-4-cyclohexylpyridin-2-yl)-5-(2,6-difluoro-4-methoxyphenyl)-1methyl-3-oxo-2,3-dihydro-1H-pyrazol-4-yl]-4-(difluoromethoxy)benzamide]
EC50 [1]: 5 nM
EC50 [2]: 900 nM

COc1cc(F)c(-c2c(NC(=O)c3ccc(OC(F)F)cc3)c(=O)n(-c3nccc(C)c3C#N)n2C)c(F)c1 [Example 201, N-[2-(3-cyano-4-methylpyridin-2-yl)-5-(2,6-difluoro-4-methoxyphenyl)-1-methyl-3-oxo-2,3-dihydro-1H-pyrazol-4-yl]-4-(difluoromethoxy)benzamide]
EC50 [1]: 4 nM
EC50 [2]: > 10000 nM

COc1cc(F)c(-c2c(NC(=O)c3ccc(OC(F)F)cc3)c(=O)n(-c3nc(N4CCN(C)CC4)ccc3C#N)n2C)c(F)c1 [Example 202, N-{2-[3-cyano-6-(4-methylpiperazin-1-yl)pyridin-2-yl]-5-(2,6-difluoro-4-methoxyphenyl)-1-methyl-3-oxo-2,3-dihydro-1H-pyrazol-4-yl}-4-(difluoromethoxy)benzamide]
EC50 [1]: 32 nM
EC50 [2]: 2500 nM

COc1cc(F)c(-c2c(NC(=O)c3ccc(OC(F)F)cc3)c(=O)n(-c3nc(Cl)ccc3N3CC(C)(O)C3)n2C)c(F)c1 [Example 203, N-{2-[6-chloro-3-(3-hydroxy-3-methylazetidin-1-yl)pyridin-2-yl]-5-(2,6-difluoro-4-methoxyphenyl)-1-methyl-3-oxo-2,3-dihydro-1H-pyrazol-4-yl}-4-(difluoromethoxy)benzamide]
EC50 [1]: 5 nM
EC50 [2]: > 10000 nM

COc1cc(F)c(-c2c(NC(=O)c3ccc(OC(F)F)cc3)c(=O)n(-c3cccc(CN(C)C)n3)n2C)c(F)c1 [Example 204, N-[5-(2,6-difluoro-4-methoxyphenyl)-2-{6-[(dimethylamino)methyl]pyridin-2-yl}-1-methyl-3-oxo-2,3-dihydro-1H-pyrazol-4-yl]-4-(difluoromethoxy)benzamide]
EC50 [1]: 15 nM
EC50 [2]: > 10000 nM

COc1cc(F)c(-c2c(NC(=O)c3ccc(OC(F)F)cc3)c(=O)n(-c3cccc(CN4CCN(C)CC4)n3)n2C)c(F)c1 [Example 205, N-[5-(2,6-difluoro-4-methoxyphenyl)-1-methyl-2-{6-[(4-methylpiperazin-1-yl)methyl]pyridin-2-yl}-3-oxo-2,3-dihydro-1H-pyrazol-4-yl]-4-(difluoromethoxy)benzamide]
EC50 [1]: 25 nM
EC50 [2]: > 10000 nM
